Experimental data as given in PMC7756392, “Syntheses of Thailandepsin B Pseudo‐Natural Products: Access to New Highly Potent HDAC Inhibitors via Late‐Stage Modification” (Chemistry (Weinheim an Der Bergstrasse, Germany), 2020).

Columns and labels:
HL60 cells = test: MTS cell viability assay, HL60; type: cell-based; conditions: for GI50 (in words): 72 h
Experimental: (§1) hHDAC1/6: Activity assays were performed in OptiPlateTM-96 F black microplates (PerkinElmer). Commercial available enzymes (human recombinant HDAC1; BPS Bioscience, catalog no. 50051 and human recombinant HDAC6; BPS Bioscience, catalog no. 50006) were used. Total assay volume of 60 µL contains 42 µl of assay buffer (50 mM Tris -HCl, pH 8.0, 137 mM NaCl, 2.7 mM KCl, 1 mM MgCl2, 0.2 mM TCEP and 1 mg/mL bovine serum albumin), 10 µL of enzyme solution in assay buffer, 3 µL of increasing concentrations of inhibitors in DMSO and 5 μL of the fluorogenic substrate ZMAL (Z -(Ac)Lys-AMC) (126 μM). After incubation (90 min, 37 °C) 60 µL of stop solution, containing 5 μL Trichostatin A (TSA) (33 μM) and 10 μL trypsin (6 mg/mL) in trypsin buffer (Tris-HCl 50 mM, pH 8.0, NaCl 100 mM), were added. After incubation (30 min at 37 °C) fluorescence signal (λex = 390 nm, λem = 460 nm) was measured on a BMG LABTECH POLARstar OPTIMA plate reader (BMG Labtechnologies, Germany).10 hHDAC8: Enzyme was obtained from cooperation partners (Romier).11 Assay was performed as described before. […] After incubation (30 min at 37 °C) fluorescence signal was determined as mentioned for HDAC1/6.12 […]
(§2) Cell proliferation was determined by using the Celltiter 96 AQueous nonradioactive Proliferation Assay (Promega). After 72h of incubation time with inhibitor or DMSO, 20 µL of a mixture (20:1) consisting of MTS (3-(4,5-dimethylthiazol-2-yl)-5-(3-carboxymethoxyphenyl)-2-(4-sulfophenyl-2H-tetrazolium) and PMS (phenazine methosulfate) were added to each well. Absorption was measured after another 2-4 h with a BMG LABTECH POLARstar OPTIMA plate reader (BMG Labtechnologies, Germany).
(§3) Experiments were performed in triplicates and GI50 values were calculated using the software Origin 2019. […]
(§4) CO2. […] After another 20 min of incubation, the fluorescence signal (λex = 390 nm, λem = 460 nm) was measured on a BMG LABTECH POLARstar OPTIMA plate reader (BMG Labtechnologies, Germany). […]

HeLa cells = test: MTS cell viability assay, HeLa; type: cell-based; conditions: for GI50 (in words): MTS assay, 72 h
Experimental: as §1, §2, §3, §4

SMILES	GI50 (in words) (HL60 cells)	GI50 (in words) (HeLa cells)	growth inhibition at 5 μM (in words) (HL60 cells; 5 μM)	inhibition at 5 µM (HeLa cells; Homo sapiens, 5 μM, read-out: inhibition of cell growth at 5 μM) [%]
CCCC[C@H]1NC(=O)C[C@@H](/C=C/CCSC(C)=O)OC(=O)C[C@H](O[Si](C)(C)C(C)(C)C)[C@@H]([C@@H](C)CC)NC(=O)[C@@H](C)NC1=O [compound 32]	micromolar	micromolar	–	–
CCCC[C@H]1NC(=O)C[C@@H](/C=C/CCSC(C)=O)OC(=O)C[C@H](O)[C@@H]([C@@H](C)CC)NC(=O)[C@@H](C)NC1=O [compound 33]	nanomolar	nanomolar	–	–
CCCC[C@H]1NC(=O)C[C@@H](/C=C/CCC(=O)NO)OC(=O)C[C@H](O)[C@@H]([C@@H](C)CC)NC(=O)[C@@H](C)NC1=O [compound 8]	–	–	did not inhibit growth	30
